{
  "source": "patent US6800794B1",
  "about": "“Nucleic acid comprising the sequence of a promoter unductible by stress and a gene sequence coding for a stilbene synthase” (Champagne Moet & Chandon, priority 1998, dated 2004)",
  "key": {"[1]": {"test_system": "Botrytis cinerea mycelium, strain 916T", "assay": "Inhibition of the growth of Botrytis cinerea mycelium on malt medium containing resveratrol", "assay_type": "cell-based", "protocol": "FIG. 9: Inhibition of the growth of Botrytis cinerea mycelium, strain 916T, after 7 days at 20° C.\nThe mycelium is cultured on a malt/glucose medium containing different concentrations of resveratrol.\nA study was carried out of the action of the molecule on the growth of mycelial hyphae of Botrytis cinera in culture on a malt/agar medium containing a resveratrol dilution range of from 10^−1 M to 3.7.10^−3 M, with the hyphae being incubated at ambient temperature for 7 days. […] However, this inhibition […] progressively after 7 days of culture under these conditions, which are otherwise very favourable to the growth of the fungus. After 20 days, the fungus finally infects the whole of the culture surface."}, "[2]": {"test_system": "zoospores of Plasmopora viticola", "details": "according to DAÏ (1994); cited from earlier work"}, "[3]": {"test_system": "Botrytis cinerea conidia", "details": "according to PONT and PEZET (1990); cited from earlier work"}},
  "data": [
    {"smiles": "Oc1ccc(C=Cc2cc(O)cc(O)c2)cc1", "note": "[resveratrol]", "values": [
      {"measurement": "IC50", "setting": "[1]; Botrytis cinerea, 168 h, read-out: inhibitory effect on growth of mycelial hyphae (IC50), malt/agar medium, 7 days, ambient temperature (FIG. 9: 20° C.)", "value": 500, "unit": "µM"},
      {"measurement": "inhibitory activity on the growth of the mycelium", "setting": "[1]; at 37 μmol.^−1, 7 days", "value": "very slight inhibitory activity"},
      {"measurement": "concentrations giving an exponential decrease in the mean growth diameter of the fungus", "setting": "[1]; malt/agar medium, 7 days", "value": "greater than 125 μmol.1^−1"},
      {"measurement": "effect on the development of the zoospores", "setting": "[2]", "value": "inhibitory effect"},
      {"measurement": "blocking of germination of conidia", "setting": "[3]", "value": "does not block"}
    ]}
  ]
}
